Measurements: ChEMBL document CHEMBL6078713, “Synthesis and mechanistic studies of 4-aminoquinoline-Isatin molecular hybrids and Schiff's bases as promising antimicrobial agents” (Eur J Med Chem, 2025)
Converted amounts (≈) assume the structure as drawn. Blank lines part the entries; values can stand above or below the compound they belong to.

Assays:
Format in all cases: functional
[1] = system: Staphylococcus aureus; assay: Antibacterial activity against Staphylococcus aureus assessed as inhibition of bacterial growth
[2] = system: Acinetobacter baumannii; assay: Antibacterial activity against Acinetobacter baumannii assessed as inhibition of bacterial growth
[3] = system: Escherichia coli; assay: Antibacterial activity against Escherichia coli clinical isolate ECJH2 assessed as diameter of zone of inhibition by disk diffusion assay
[4] = system: Escherichia coli; assay: Antibacterial activity against Escherichia coli clinical isolate ECJH3 assessed as diameter of zone of inhibition by disk diffusion assay
[5] = system: Escherichia coli; assay: Antibacterial activity against Escherichia coli clinical isolate ECJH5 assessed as diameter of zone of inhibition by disk diffusion assay
[6] = system: Escherichia coli; assay: Antibacterial activity against Escherichia coli clinical isolate ECJH6 assessed as diameter of zone of inhibition by disk diffusion assay
[7] = system: Escherichia coli; assay: Antibacterial activity against Escherichia coli clinical isolate ECJH7 assessed as diameter of zone of inhibition by disk diffusion assay
[8] = system: Escherichia coli; assay: Antibacterial activity against Escherichia coli clinical isolate ECJH8 assessed as diameter of zone of inhibition by disk diffusion assay
[9] = system: Escherichia coli; assay: Antibacterial activity against Escherichia coli clinical isolate ECJH9 assessed as diameter of zone of inhibition by disk diffusion assay
[10] = system: Escherichia coli; assay: Antibacterial activity against Escherichia coli clinical isolate ECJH10 assessed as diameter of zone of inhibition by disk diffusion assay
[11] = system: Escherichia coli; assay: Antibacterial activity against Escherichia coli clinical isolate ECJH11 assessed as diameter of zone of inhibition by disk diffusion assay
[12] = system: Escherichia coli; assay: Antibacterial activity against Escherichia coli clinical isolate ECJH15 assessed as diameter of zone of inhibition by disk diffusion assay
[13] = system: Escherichia coli; assay: Antibacterial activity against Escherichia coli clinical isolate ECJH16 assessed as diameter of zone of inhibition by disk diffusion assay
[14] = system: Escherichia coli; assay: Antibacterial activity against Escherichia coli clinical isolate ECJH17 assessed as diameter of zone of inhibition by disk diffusion assay
[15] = system: Escherichia coli; assay: Antibacterial activity against Escherichia coli clinical isolate ECJH18 assessed as diameter of zone of inhibition by disk diffusion assay
[16] = system: Escherichia coli; assay: Antibacterial activity against Escherichia coli clinical isolate ECJH19 assessed as diameter of zone of inhibition by disk diffusion assay
[17] = system: Escherichia coli; assay: Antibacterial activity against Escherichia coli clinical isolate ECJH21 assessed as diameter of zone of inhibition by disk diffusion assay
[18] = system: Escherichia coli; assay: Antibacterial activity against Escherichia coli clinical isolate ECJH23 assessed as diameter of zone of inhibition by disk diffusion assay
[19] = system: Escherichia coli; assay: Antibacterial activity against Escherichia coli clinical isolate ECJH24 assessed as diameter of zone of inhibition by disk diffusion assay
[20] = system: Escherichia coli; assay: Antibacterial activity against Escherichia coli clinical isolate ECJH25 assessed as diameter of zone of inhibition by disk diffusion assay

- MIC [1]: 2 µg/mL (≈ 4.12 µM)
SMILES: CC(NC1=NC(c2cc3cc(OCc4cccc(Cl)c4)ccc3nc2O)N=CN1)c1ccccc1 (stereo not given)

- MIC [2]: 2 µg/mL (≈ 6.17 µM)
SMILES: N/N=C/c1cc(N2CCOCC2)c2cccc(C(F)(F)F)c2n1

SMILES: CC1(C)S[C@@H]2[C@H](NC(=O)[C@H](N)c3ccccc3)C(=O)N2[C@H]1C(=O)O [AMPICILLIN]
- diameter of the inhibition zone (DIZ) [3]: 22 mm
- diameter of the inhibition zone (DIZ) [4]: 19 mm
- diameter of the inhibition zone (DIZ) [5]: 18 mm
- diameter of the inhibition zone (DIZ) [6]: 14 mm
- diameter of the inhibition zone (DIZ) [7]: 24 mm
- diameter of the inhibition zone (DIZ) [8]: 21 mm
- diameter of the inhibition zone (DIZ) [9]: 16 mm
- diameter of the inhibition zone (DIZ) [10]: 18 mm
- diameter of the inhibition zone (DIZ) [11]: 21 mm
- diameter of the inhibition zone (DIZ) [12]: 20 mm
- diameter of the inhibition zone (DIZ) [13]: 17 mm
- diameter of the inhibition zone (DIZ) [14]: 16 mm
- diameter of the inhibition zone (DIZ) [15]: 17 mm
- diameter of the inhibition zone (DIZ) [16]: 17 mm
- diameter of the inhibition zone (DIZ) [17]: 18 mm
- diameter of the inhibition zone (DIZ) [18]: 20 mm
- diameter of the inhibition zone (DIZ) [19]: 22 mm
- diameter of the inhibition zone (DIZ) [20]: 22 mm
